System: LPS-activated tissue-factor (TF) activity in human monocytes
Test: Pro-coagulant activity of tissue factor (one-stage clotting time) in LPS-stimulated human monocytes
Assay type: cell-based
Method: FIG. 2—The glycerophosphoinositols inhibit LPS-activated tissue-factor activity in human monocytes. Human monocytes were purified from peripheral blood of healthy donors and incubated at 37° C. for 20 min without or with different concentrations (from 50 μM to 300 μM) GroPIns or GroPIns4P, and for a further 5 h and 24 h in the absence and in presence of 0.1 μg/ml LPS from E. coli. […] Data are means (±SD) of three independent experiments performed with cells from different donors. Asterisks indicate statistically significant differences (*p=0.015; **p<0.005; ***p=0.0003) versus their respective controls. As shown, pro-coagulant activity was not detectable in untreated monocytes, and it was induced in a time-dependent manner by LPS stimulation.
The glycerophosphoinositol, differently from the PLA2IVα inhibitor, inhibits LPS-activated tissue-factor activity in human monocytes. Human monocytes were purified from peripheral blood of two healthy donors (experiment I and II) and pre-incubated at 37° C. for 20 min without (black line) or with 300 μM glycerophosphoinositol (GroPIns, blue line) or 0.5 μM PLA2IVα inhibitor (pyrrophenone, Pf, red line), and for a further 24 h in the absence or presence of increasing concentrations of LPS from E. coli (endotoxin).
The glycerophosphoinositol inhibits in a dose-dependent manner LPS-activated tissue-factor activity in human monocytes. Human monocytes were purified from peripheral blood of three healthy donors (experiments III, IV and V) and pre-incubated at 37° C. for 20 min without or with increasing concentrations of glycerophosphoinositol (GroPIns) and for a further 24 h in the absence or presence of 10 ng/ml of LPS from E. coli (endotoxin). […] The two insets in Exp IV and V show the pro-coagulant activity of tissue factor, assessed in cells stimulated by 10 ng/ml of endotoxin, with (filled bars) or without (dotted bars) 20 min pre-incubation at 37° C., in absence (Control) or in presence of 300 μM GroPIns.
The glycerophosphoinositols inhibit LPS-activated tissue-factor activity in human monocytes.
Human monocytes were obtained from whole blood collected from healthy donors (informed consent was obtained) and anticoagulated with 0.1 vol 3.8% sodium citrate/0.15 mol/l NaCl. The leukocytes were sedimented at 180×g for 15 min at 10° C. The sedimented cells were diluted to the initial volume with citrate-saline and sedimented again. This step was repeated to minimise platelet contamination. The cells were then layered onto Lymphoprep™, and centrifuged at 700×g for 20 min at 20° C. The ring of mononuclear cells was collected and sedimented at 620×g for 7 min at 8° C. The pellet was resuspended in citrate-saline and the cells were washed twice. Monocytes were purified using a discontinuous Percoll™ density gradient; the mononuclear cell preparation was resuspended in RPMI-1640 medium supplemented with 10% heat-inactivated foetal calf serum, and was layered onto a 46% isosmotic Percoll™ solution. After centrifugation at 20° C. for 30 min at 550×g, the cells at the RPMI-1640 medium/Percoll™ interface were collected and sedimented at 620×g. The pellet was resuspended in citrate-saline and the cells were washed twice. The final monocyte preparation was then resuspended in serum-free RPMI-1640 at the concentration required.
The pro-coagulant activity of tissue factor (TF activity) was measured in cell lysates according to one-stage clotting time [as reported in (Evangelista et al., Thromb Haemost. 2005; 94, 568-577)]. One hundred μl of cell lysates were added to 100 μl of 37° C. prewarmed normal human plasma. After 30 s, 100 μl 20 mM CaCl2 were added to the mixture and the clotting time was determined using a KC4A Amellung Coagulometer (Mascia Brunelli, Milan, Italy). The data were then converted in arbitrary units by interpolation with a standard curve generated with serial dilutions of human recombinant thromboplastin (Hemoliance, Instrumentation Laboratory).

[1] = 300 μM, endotoxin 10 ng/ml for 24 h (FIG. 12)

Structure (SMILES): O=C1NC(=O)/C(=C/c2ccc(C(=O)NC[C@@H]3C[C@@H](SC(c4ccccc4)(c4ccccc4)c4ccccc4)CN3C(=O)c3ccccc3C(=O)c3ccc(F)cc3F)cc2)S1 [pyrrophenone, reference compound]
- TF activity (0.5 μM, 20 min pre-incubation, increasing concentrations of endotoxin for 24 h (FIG. 10)): does not significantly inhibit endotoxin effect on tissue-factor activity

Structure (SMILES): O=P(O)(O)O[C@@H]1[C@@H](O)[C@@H](O)[C@@H](OP(=O)(O)OCC(O)CO)[C@H](O)[C@H]1OP(=O)(O)O (stereo partly drawn) [GroPIns4,5P2, glycerophosphoinositol 4,5-bisphosphate]
- TF activity [1]: reduce TF activity
- efficacy in reducing TF activity compared with GroPIns [1]: higher efficacy than GroPIns

Source: patent US9351983B2, “Use of glycerophosphoinositols for the treatment of septic shock” (CONSIGLIO NAZIONALE DELLE RICERCHE, priority 2012, dated 2016)
